The record followed here is patent US20120115869A1, “TETRAZOLE DERIVATIVES” (MERCK SERONO S.A., priority 2009, published 2012).

For one data set, the target named is T1, CRTH2 (DP2) (Homo sapiens, UniProt Q9Y5Y4).
T1 construct: host or cells: CHO cells
T1 sequence (Q9Y5Y4 1-395): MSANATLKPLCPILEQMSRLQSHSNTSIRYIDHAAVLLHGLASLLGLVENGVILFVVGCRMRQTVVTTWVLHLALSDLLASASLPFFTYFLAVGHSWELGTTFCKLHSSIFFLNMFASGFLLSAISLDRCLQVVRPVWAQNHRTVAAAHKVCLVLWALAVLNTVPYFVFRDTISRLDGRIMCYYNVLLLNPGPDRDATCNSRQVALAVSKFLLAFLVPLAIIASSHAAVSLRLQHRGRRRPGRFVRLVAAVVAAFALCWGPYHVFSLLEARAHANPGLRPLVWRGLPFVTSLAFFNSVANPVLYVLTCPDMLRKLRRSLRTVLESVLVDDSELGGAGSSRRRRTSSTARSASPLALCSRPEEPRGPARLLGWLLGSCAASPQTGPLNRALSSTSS
The data set is described as follows: Radioligand binding Scintillation Proximity Assay ([3H]PGD2, hCRTH2-CHO cell membranes). The conditions noted are these: 1.5 nM [3H]PGD2, hCRTH2-CHO cell membranes, SPA. In short, it runs like this:
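Membranes from CHO cells stably expressing human CRTH2, made by nitrogen cavitation and differential centrifugation. Compounds competed with [3H]PGD2 at 1% DMSO for 90 min with agitation at room temperature. Non-specific binding taken with 10 μM PGD2.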
On the technique in general: In a scintillation proximity assay essentially only radioactivity close to the scintillant gives light.

For data set [1], the target named is T2, CRTH2 (Homo sapiens, UniProt Q9Y5Y4).
T2 construct: expressed in transfected cells; host or cells: CHO cells
T2 sequence (Q9Y5Y4 1-395): T1 sequence (Q9Y5Y4 1-395)
In words: Cellular Dielectric Spectroscopy in CHO-CRTH2 cells. Type of data set: cell-based. The conditions noted are these: for IC50: fixed concentration of PGD2 (EC80), read-out: IC50(μM) (CDS, antagonist); for EC50: agonist activity without PGD2, read-out: EC50(μM) (CDS, partial agonist); for Emax: agonist activity without PGD2, read-out: EMax (CDS, partial agonist). As for the experimental part:
Cellular Dielectric Spectroscopy (CDS) is a label-free technology based on the measurement of complex impedance changes (delta Z or dZ). Impedance (Z) is related to the ratio of voltage to current as described by Ohm's law (Z=V/I). In order to measure the changes in impedance that occur in response to receptor stimulation, mammalian cells are seeded onto a custom 96-well microtiter plate that contains electrodes at the bottom of each well Key contributors to the impedance measurements are changes in cell-substrate adherence, changes in cell shape and volume, and changes in cell-cell interactions. These factors individually or collectively affect the flow of current, influencing the magnitude and characteristics of the signal measured. G-protein coupled receptors ligand-induced activity can be measured using this technology and specific G protein coupling can be identified. Activities of reference agonist and antagonist molecules of CRTH2 have been measured using this assay and similar results were obtained compared to different functional assays.
CHO—CRTH2 cells are cultured in HAM's F12 (Lonza, Switzerland) supplemented with 10% foetal calf serum (PAA, Australia) and 400 μg/ml Geneticin. 100000 cells/well are seeded in standard 96 W Microplates (MDS Analytical Technologies) and incubated at 37° C. in 5% CO2 for 24 hours. Cells are washed twice with 135 μl of cell key buffer (Hank's Balanced Salt Solution 1× (HBSS) (Invitrogen) supplemented with 10 mM HEPES pH 7.4 in presence of 1% DMSO). […] Results are expressed as the amplitude between the highest and the lowest signal produced (max-min). Basal and maximum activities are measured, respectively in absence or presence of PGD2 (EC80).

Data set [2] deals with T2, CRTH2. In words: [35S]GTPγS binding assay on CHO-CRTH2 cell membranes. Type of data set: biochemical. The conditions noted are these: for Emax: without addition of PGD2, 100% of Emax being the activity measured by the addition of 1 μM of PGD2. As to the method:
Adherent CHO cells expressing hCRTH2 (Euroscreen, Belgium) were cultured in 225 cm^2 cell culture flasks (Corning, USA) in 30 ml of medium. After two rinses of phosphate buffered saline (PBS), cells were harvested in 10 ml of PBS containing 1 mM EDTA, centrifuged at 500×g for 5 min at 4° C. and frozen at −80° C. The pellet was re-suspended in 50 mM Tris-HCl, pH 7.4, 2 mM EDTA, 250 mM Sucrose, containing protease inhibitor cocktail tablets, (Complete EDTA-free, Roche, Germany) and incubated 30 min at 4° C. Cells were disrupted by nitrogen cavitation (Parr Instruments, USA) at 4° C. (800 p.s.i. for 30 min), and centrifuged at 500×g for 10 min at 4° C. Pellet containing nuclei and cellular debris was discarded and supernatant was centrifuged 60 min at 4° C. at 45000×g. Membrane pellet was re-suspended in storage buffer (10 mM HEPES/KOH pH 7.4, 1 mM EDTA, 250 mM sucrose, protease inhibitor cocktail tablets) using Dounce homogenization and frozen in liquid nitrogen, and stored at 80° C.
The [^35S]GTPγS assay measures the increase in guanine nucleotide exchange at G-proteins in cell membranes, resulting from agonist (PGD2) binding to CRTH2. […] Briefly, Compounds of Formula (I) are incubated in 96-well scintillating white polystyrene plates (Perkin Elmer, USA) in a final volume of 200 μl containing 20 mM HEPES/KOH pH 7.4, 3 mM MgCl2, 10 μg/ml Saponin, 5 μM GDP, 75 mM NaCl and 2% of dimethylsulphoxide (DMSO). […] After 60 min incubation at 30° C., reaction is stopped by centrifugation at 700×g, at 4° C. for 10 minutes and supernatant is removed. […] For IC50 determination, increasing concentrations of compounds are incubated in presence of a fixed concentration of PGD2 (EC80). For EC50 measurements, compounds are incubated without addition of PGD2. Basal [^35S]GTPγS activity is determined without addition of any ligands or compounds. 100% [^35S]GTPγS activity is measured by the addition of 1 μM of PGD2.

In the case of `CCCCC(=O)N(Cc1cccn1S(=O)(=O)c1ccccc1)c1cc(-c2nnn[nH]2)ccc1F` [Example 4, N-[2-fluoro-5-(1H-tetrazol-5-yl)phenyl]-N-{[1-(phenylsulfonyl)-1H-pyrrol-2-yl]methyl}pentanamide], the IC50 stood at 51 nM on CRTH2 (DP2) and 0.22 µM at CRTH2 [1].

`CCCCC(=O)N(Cc1cccc(OC)c1)c1cc(F)cc(-c2nnn[nH]2)c1` [Example 37, N-[3-fluoro-5-(1H-tetrazol-5-yl)phenyl]-N-(3-methoxybenzyl)pentanamide] came in with a melting point of 118 to 120 °C. Besides, the IC50 at CRTH2 (DP2) stood at 3.6 nM.

`CCCCC(=O)N(Cc1ccc(OC)cc1)c1cc(F)cc(-c2nnn[nH]2)c1` [Example 38, N-[3-fluoro-5-(1H-tetrazol-5-yl)phenyl]-N-(4-methoxybenzyl)pentanamide]: the melting point lay within 122 to 125 °C. For the same compound, the IC50 at CRTH2 (DP2) turned out to be 3.6 nM.

As to `CCCCC(=O)N(Cc1ccc(OC(F)(F)F)cc1)c1cc(Cl)cc(-c2nnn[nH]2)c1` [Example 40, N-[3-chloro-5-(1H-tetrazol-5-yl)phenyl]-N-[4-(trifluoromethoxy)benzyl]pentanamide], the melting point fell in the range of 177 to 180 °C. On CRTH2 (DP2), this compound gave an IC50 of 25 nM. Also, the Emax on CRTH2 [2] was -9.9%.

As to `CCC(=O)N(Cc1ccc(OC)cc1)c1cc(F)cc(-c2nnn[nH]2)c1` [Example 41, N-[3-fluoro-5-(1H-tetrazol-5-yl)phenyl]-N-(4-methoxybenzyl)propanamide], the melting point lay within 158 to 160 °C. Also, on CRTH2 (DP2), the IC50 amounted to 9 nM.

`CCCCC(=O)N(Cc1ccc(OC(F)(F)F)c(Cl)c1)c1cc(F)cc(-c2nnn[nH]2)c1` [Example 54, N-[3-chloro-4-(trifluoromethoxy)benzyl]-N-[3-fluoro-5-(1H-tetrazol-5-yl)phenyl]pentanamide]: the melting point stood at 137 °C. The IC50 on CRTH2 (DP2) amounted to 15 nM. For the same compound, the Emax at CRTH2 [2] was -12.6%.

The compound `CCCC(=O)N(Cc1ccc(OC(F)(F)F)cc1)c1cc(Cl)cc(-c2nnn[nH]2)c1` [Example 55, N-[3-chloro-5-(1H-tetrazol-5-yl)phenyl]-N-[4-(trifluoromethoxy)benzyl]butanamide] gave a melting point of 179 °C. The IC50 on CRTH2 (DP2) was determined as 16 nM. Besides, the Emax on CRTH2 [2] was -13.5%.

`CCC(=O)N(Cc1cccc(-c2ccccc2)c1)c1cccc(-c2nnn[nH]2)c1` [Example 59, N-(biphenyl-3-ylmethyl)-N-[3-(1H-tetrazol-5-yl)phenyl]propanamide] came in with a melting point of 91 °C. This compound also had an IC50 on CRTH2 (DP2) of 230 nM.

Compound `COCCC(=O)N(Cc1ccc(OC(F)(F)F)cc1)c1cc(Cl)cc(-c2nnn[nH]2)c1` [Example 68, N-[3-chloro-5-(1H-tetrazol-5-yl)phenyl]-3-methoxy-N-[4-(trifluoromethoxy)benzyl]propanamide] had a melting point of 146 to 151 °C. The compound also came in with an IC50 at CRTH2 (DP2) of 7.4 nM.

As to `CCC(=O)N(Cc1ccc(S(C)(=O)=O)cc1)c1cc(F)cc(-c2nnn[nH]2)c1` [Example 78, N-[3-fluoro-5-(1H-tetrazol-5-yl)phenyl]-N-[4-(methylsulfonyl)benzyl]propanamide], the IC50 at CRTH2 (DP2) amounted to 3.5 nM. Moreover, the Emax on CRTH2 [2] is 19%. Also, at CRTH2 [1], the EC50 turned out to be 0.0011 µM, the Emax is 42% and the IC50 stood at 0.014 µM.

`CC(C)CC(=O)N(Cc1ccc(S(C)(=O)=O)cc1)c1cc(F)cc(-c2nnn[nH]2)c1` [Example 104, N-[3-fluoro-5-(1H-tetrazol-5-yl)phenyl]-3-methyl-N-[4-(methylsulfonyl)benzyl]butanamide] had an IC50 at CRTH2 (DP2) of 3.7 nM. For the same compound, at CRTH2 [1], the EC50 turned out to be 0.0011 µM and the Emax was found to be 27%.

As to `CS(=O)(=O)c1ccc(CN(C(=O)C2CCCC2)c2cc(F)cc(-c3nnn[nH]3)c2)cc1` [Example 105, N-[3-fluoro-5-(1H-tetrazol-5-yl)phenyl]-N-[4-(methylsulfonyl)benzyl]cyclopentanecarboxamide], the IC50 on CRTH2 (DP2) was 6.2 nM. At CRTH2 [1], the EC50 is 0.0024 µM and the Emax is 22%.

As to `CS(=O)(=O)c1ccc(CN(C(=O)c2ccccc2)c2cc(F)cc(-c3nnn[nH]3)c2)cc1` [Example 108, N-[3-fluoro-5-(1H-tetrazol-5-yl)phenyl]-N-[4-(methylsulfonyl)benzyl]benzamide], the IC50 at CRTH2 (DP2) turned out to be 2.6 nM; at CRTH2 [2] (in presence of a fixed concentration of PGD2 (EC80), read-out: IC50 ([35S]GTPγS, antagonist)) it was 22.4 nM; on CRTH2 [1], 0.049 µM. Moreover, the Emax at CRTH2 [2] was -10.1%.

With `CS(=O)(=O)c1ccc(CN(C(=O)Cc2ccccc2)c2cc(F)cc(-c3nnn[nH]3)c2)cc1` [Example 109, N-[3-fluoro-5-(1H-tetrazol-5-yl)phenyl]-N-[4-(methylsulfonyl)benzyl]-2-phenylacetamide], the IC50 at CRTH2 (DP2) was 1 nM. Moreover, at CRTH2 [1], the EC50 was found to be 0.0012 µM and the Emax is 32%.

The term IC50 denotes the concentration needed to halve the response being measured. As usually defined, the melting point is the temperature, or range, at which the solid turns liquid. As a reminder, the Emax is the greatest response seen or fitted, relative to the assay's reference. The EC50 is the concentration giving half of the maximal effect.
